The values that follow come from US20240294478A1, “ANTI-CANCER COMPOUNDS AND METHODS OF USE” (YALE UNIVERSITY, priority 2021, published 2024).

Common to all, as to assay type: cell-based, human
One assay deals with MGMT− LN229 cells. Kind of assay: Clonogenic survival assay, LN229 MGMT- cells. The procedure:
In vitro clonogenic survival assays (CSAs) were performed using four isogenic LN229 glioblastoma cell lines.
Clonogenic Cell Survival Assay. Cells of each line were pretreated with the test drug in culture for 48-72 hours at the specified dilutions. The cells were then immediately seeded in six-well plates in triplicate at three-fold dilutions, ranging from 9000 to 37 cells per well. Depending on colony size, these plates were kept in the incubator for 10 to 14 days. After incubation, colonies were washed in phosphate-buffered saline (PBS) and stained with crystal violet. Colonies were counted by hand. Counts were normalized to plating efficiency of the corresponding treatment condition.

A further assay concerns LN229 MGMT− shMLH1 cells. Kind of assay: Short-term viability assay, LN229 MGMT- shMLH1. The following applies: for IC50: Homo sapiens, LN-229, Table III, read-out: IC50 against LN229 cell lines, MGMT− MMR−; for MGMT− RI: Table III. The procedure: The activity of KL-50 in MGMT-LN229 cells engineered to lack expression of other key MMR proteins including MSH6, MLH1, PMS2, and MSH3 was also confirmed. Western blotting was performed in LN229 MGMT+/−cells with stable expression of shRNA targeting MSH6, MLH1, PMS2, or MSH3 to confirm depletion of the shRNA targets. In shMSH6 cells, there was reduced expression of MSH2, and in shMLH1 cells, there was loss of PMS2, due to destabilization in the setting of loss of their heterodimeric partners. GAPDH serves as loading control. […] Short-term viability assay curves for KL-50 in LN229 MGMT+/−, MMR+/shMSH6 cells. […] Short-term viability assay curves for KL-50 in LN229 MGMT+/−, MMR+/shMLH1 cells. […] Short-term viability assay curves for KL-50 in LN229 MGMT+/−, MMR+/shPMS2 cells. […] Short-term viability assay curves for KL-50 in LN229 MGMT+/−, MMR+/shMSH3 cells.
MMR Protein shRNA Knockdown. pGIPZ lentiviral shRNA vectors targeting MSH2, MSH6, MLH1, PMS2, and MSH3 were purchased from Horizon Discovery (Table IV). Lentiviral particles were produced in HEK293T cells via co-transfection with lentiviral shRNA plasmid, pCMV-VSV-G envelope plasmid (Addgene, #8454) and psPAX2 packaging plasmid (Addgene, #12260), using Lipofectamine 3000 Reagent (Invitrogen, L3000001) per manufacturer's protocol. Viral particles were harvested 48 h post-transfection and used to transduce LN229 MGMT+/−cells in the presence of 8 μg/mL polybrene. Selection of pooled cells with lentiviral expression was established with 1 μg/mL puromycin 48 h post-transduction for 3 to 4 days. Single cell cloning was performed by limiting dilution and protein knockdown was confirmed by western blotting.
Short-term Cell Viability Assay. Cells were seeded in 96-well plates at 1000 or 2000 cells/well and allowed to adhere at 23° C. for 60 min and then incubated overnight at 37° C. Cells were treated with indicated concentrations of compounds in triplicate for 4-6 days prior to fixation with 3.7% paraformaldehyde and nuclear staining with 1 μg/mL Hoechst 33342 dye. Cells were imaged on a Cytation 3 imaging reader (BioTek) and quantified using CellProfiler software. For in vitro short-term growth delay experiments, IC50 values were determined from the nonlinear regression equation, [inhibitor] vs normalized response with variable slope.

For a further assay, the system named is LN229 MGMT−/MMR− cells. Kind of assay: Short-term cell viability assay, LN229 MGMT-/MMR- (shRNA targeting MSH2). The following applies: for IC50: Homo sapiens, read-out: IC50 against LN229 cell lines, MGMT− MMR−; for activity in MGMT−/MMR− cells, in words: LN229 MGMT−/MMR−. The procedure:
LN229 MGMT- and MGMT+ cell lines were a gift from B. Kaina (Johannes Gutenberg University Mainz, Mainz, Germany) and grown in Gibco® Duilbecco's Modified Eagle Medium with 10% fetal bovine serum (DMEM). For each compound tested, the relationship between MGMT status and MMR status and compound activity, in terms of IC50 values ([…]), was determined by the following method. On day 1, LN229 isogenic cells of varying MGMT and MMR status were seeded in 96 well format at a density of 2000 cells/well in 100 μL of DMEM media and allowed to adhere overnight. On day 2, a drug master plate was made with 100×the desired maximal concentration of test compound and serially diluted by 2 until 100×the minimal desired concentration, with one DMSO control. Then daughter plates were created with varied concentrations from 3-times the minimal concentration to 3-times the maximal desired concentration. Afterwards, 50 μL of daughter drug plate was added to 100 μL of the seeded cells for a final concentration of 1×in triplicate. Cells were allowed to grow for 6 days. On day 7, the cells were fixed, and stained with Hoechst nuclear dye and imaged to determine growth inhibition.
For each compound tested, the relationship between MGMT status and MMR status and compound activity, in terms of IC50 values (in μM), was determined. In addition, for each compound, the therapeutic index (TI) was calculated, according to the equation MGMT TI=IC50 (MGMT+/MMR+) divided by IC50 (MGMT−/MMR+). […] MMR RI (resistance index)=IC50 (MGMT−/MMR−) divided by IC50 (MGMT−/MMR+).
Short-term Cell Viability Assay. Cells were seeded in 96-well plates at 1000 or 2000 cells/well and allowed to adhere at 23° C. for 60 min and then incubated overnight at 37° C. […] Cells were imaged on a Cytation 3 imaging reader (BioTek) and quantified using CellProfiler software. For in vitro short-term growth delay experiments, IC50 values were determined from the nonlinear regression equation, [inhibitor] vs normalized response with variable slope.

Read-outs that look alike come from different tables or passages of the source.

For the compound `NC(=O)c1ncn2c(=O)n(CCF)nnc12` [KL-50], the “clonogenic survival, antitumor activity in MGMT− cells” value in the assay with MGMT− LN229 cells (independent of MMR status) is recorded as “robust antitumor activity”. In the assay on LN229 MGMT− shMLH1 cells, the concentration for half-maximal inhibition (IC50) amounted to 7.8 ± 0.3 µM and the “MGMT− RI” value is listed as 0.6. Further, the concentration for half-maximal inhibition (IC50) in the assay on LN229 MGMT−/MMR− cells (LN-229, Table II) turned out to be 22 ± 6.9 µM. Besides, in the assay with LN229 MGMT−/MMR− cells, the “activity in MGMT−/MMR− cells, in words” value is given as “exquisite sensitivity”. The “MGMT− RI (resistance index)” value in the assay on LN229 MGMT−/MMR− cells (Table II, IC50 (MGMT−/MMR−) divided by IC50 (MGMT−/MMR+)) was 0.9.

Turning to `Cn1nnc2c(C(N)=O)ncn2c1=O` [TMZ, 4-methyl-5-oxo-2,3,4,6,8-pentazabicyclo[4.3.0]nona-2,7,9-triene-9-carboxamide, reference compound], in the assay with MGMT− LN229 cells, the “clonogenic survival, activity in MGMT−, MMR+ cells” value is on record as “robust tumor cell killing”. The “clonogenic survival, activity in MMR− cells” value with MGMT− LN229 cells (isogenic cells lacking MMR) is “abolished”. Also, the IC50 in the assay with LN229 MGMT− shMLH1 cells was 917 ± 85 µM; in the assay with LN229 MGMT−/MMR− cells (LN-229, 144 h, Table 1, 6 days growth), 838 ± 100 µM; in the assay with LN229 MGMT−/MMR− cells (LN-229, Table II), 838 ± 100 µM. In addition, the “MGMT− RI” value in the assay on LN229 MGMT− shMLH1 cells was determined as 180. Besides, the “activity in MGMT−/MMR− cells, in words” value in the assay with LN229 MGMT−/MMR− cells was “essentially inactive”.
